Data taken from patent EP0294538B1, “Use of nigericin for the production of a medicament for the treatment of viral diseases” (S O "PHARMACHIM", priority 1987, dated 1988).

Experiments:
[1] = system: Virus-Erkrankungen des Auges; experiment: Clinical study of different treatments of viral diseases of the eye (Table 1); assay type: in vivo, Patienten
Text: Ergebnisse der klinischen Untersuchungen von Nigerizin (s. Tabelle 1).
Das Nigerizin enthaltende Arzneimittel in Form von Tropfen, Salbe und Suppositorien wurde an insgesamt 711 Patienten mit verschiedenen Virus-Erkrankungen: Labial-, Fazial-, Genital- und Gluteal- oder Femoralherpes, Herpes und Adenovirus-Keratitis und Konjunktivitis, Vaginitis, Endocervicitis und Exocervicitis mit Herpes-Ethiologie, Herpes Zoster der Augen und Haut angewendet.
Nigerizin-Tropfen wurden an 112 Patienten in drei Augenkliniken des Medizinischen Akademie-Forschungsinstitutes für Augenkrankheiten, Lehrstuhl für Ophthalmologie an den Hochschulen für Medizin in Varna und in Pleven verabreicht.

[2] = system: zentralen Nervensystem; experiment: Safety pharmacology: central nervous system; settings: in vivo
Procedure: (§1) Bei Spritzenbehandlung: Die akute Toxizität bei weißen Ratten und Mäusen (=LD₅₀) liegt im Bereich von 55 bis 66 mg/kg. Die chronische sechsmonatige Toxizität in Dosen bis 1/10 der LD₅₀ beträgt bis zu 5,6 mg/kg. […] Die pharmakologische Untersuchung zeigte gute Toleranz bei verschiedenen Tieren bei Konzentrationen bis zu 1/10 der LD₅₀.

[3] = system: verschiedenen Tieren; experiment: Pharmacological tolerance study; assay type: in vivo; settings: various animals; up to 1/10 of LD₅₀
Procedure: as §1

[4] = Mutagenicity
Procedure: as §1

[5] = Acute toxicity by injection (LD50); parameters: species or system weißen Ratten und Mäusen; settings: in vivo, white rats and mice, read-out: akute Toxizität (=LD₅₀)
Procedure: as §1

[6] = system: Auge eines Kaninchens; assay type: in vivo, Kaninchen; settings: topical; doses 20 times the therapeutic concentrations; 10 days
[7] = system: Glattmuskulatur des Magen-Darm-Wegs; experiment: Safety pharmacology: smooth muscle of the gastrointestinal tract; assay type: in vivo, Ratten und Kaninchen; settings: rats and rabbits
Procedure: as §1

[8] = system: Ratten; experiment: Chronic six-month toxicity by injection; assay type: in vivo; settings: six months, doses up to 1/10 of LD₅₀ (up to 5,6 mg/kg), blood, coagulation, blood and urine biochemistry, liver, histology, general state, weight, behaviour
Procedure: as §1

[9] = system: Herpes-Erkrankungen; experiment: Efficacy of nigericin ointment depending on the start of treatment (Table 4); assay type: in vivo, Patienten; settings: treatment begun on the first day; analysis of 88 patients
Text: Es wurde die Abhängigkeit zwischen der Wirksamkeit der Behandlung mit Nigerizin-Salbe und dem Beginn der Behandlung untersucht (siehe Tabelle 4). TABELLE 4
Bei 140 mit Nigerizin-Salbe behandelten Patienten wurde eine Wirksamkeit von 90% erreicht, verglichen mit weniger als 20% für die mit Placebo behandelten Kontrollgruppe. Die eingehende Analyse der Ergebnisse an 88 Patienten zeigt, daß es sehr wichtig ist, bei Nigerizin früh mit der Behandlung zu beginnen, wobei am ersten Tag die Wirksamkeit bis zu 100% beträgt. Bei den Patienten, die mit einer Placebo-Salbe behandelt wurden, wird die Wirksamkeit nicht durch die Phase der Erkrankung beeinflußt, was ihren nicht spezifischen Charakter beweist.

[10] = system: Herz-Blutgefäß-System von Katzen; experiment: Safety pharmacology: cardiovascular system (blood pressure, electrocardiogram); assay type: in vivo; settings: cats; blood pressure and electrocardiograms
Procedure: as §1

[11] = system: trächtigen weißen Ratten; experiment: Embryotoxicity and teratogenicity by injection; assay type: in vivo; settings: doses up to 5,6 mg/kg, pregnant white rats
Procedure: as §1

[12] = Adenovirus-Keratokonjunktivitis

| Compound | Dauer der Behandlung (Tage) [1, 12] | Prozent der günstigen Beeinflußung [1, 12] [Prozent] | Dauer der Behandlung (Tage) ([1]; Oberflächen-Herpeskeratitis) | Prozent der günstigen Beeinflußung ([1]; Oberflächen-Herpeskeratitis) [Prozent] | Dauer der Behandlung (Tage) ([1]; Tiefe/Ulzerose/ Keratitis) | Prozent der günstigen Beeinflußung ([1]; Tiefe/Ulzerose/ Keratitis) [Prozent] | Durchschnittsaufenthalt im Krankenhaus (Tage) ([1]; all clinical forms of the treatment group) | Dauer der Behandlung ([1]; compared with Idoxyridin, immune and physico-chemical means) | Veränderungen im zentralen Nervensystem [2] | Toleranz [3] | Mutagenität [4] | LD50 [5] [mg/kg] | toxische Wirkung am Auge [6] | Funktionen der Glattmuskulatur des Magen-Darm-Wegs [7] | chronische sechsmonatige Toxizität: Abweichungen der behandelten Ratten [8] | Wirksamkeit [9] [%] | Wirkung auf das Herz-Blutgefäß-System [10] | embryotoxische und terratogene Wirkung [11] |
| --- | --- | --- | --- | --- | --- | --- | --- | --- | --- | --- | --- | --- | --- | --- | --- | --- | --- | --- |
| O=c1[nH]c(=O)n([C@H]2C[C@H](O)[C@@H](CO)O2)cc1I [Idoxyridin, 2'-desoxy-5-iodo-uridin] | 9,3 Tage | 41 | 17,9 Tage | 82 | 25,2 Tage | 51 | 23,6 Tage |  |  |  |  |  |  |  |  |  |  |  |
| COC1CC(CC2CCC(C)C(C(C)C(=O)O)O2)OC2(OC(C)(C3CCC(C)(C4OC(C5OC(O)(CO)C(C)CC5C)CC4C)O3)CC2C)C1C (stereo not drawn) [Nigerizin] |  |  |  |  |  |  |  | um mehr als zweimal verringert | keine Veränderungen | gute Toleranz | keine Mutagenität | 55 to 66 | keine toxische Wirkung | ändert nicht | keine Abweichungen | ≤ 100 | keine Wirkung | keine embryotoxische und terratogene Wirkung |
